Measurements taken from patent US6602896B1, “p38MAPK inhibitor and uses thereof” (The Board of Trustees of the University of Arkansas, priority 1999, dated 2003).

What was measured:
p42/44^MAPK [1] = experiment: Immunoblot of phospho-p42/44MAPK in HepG2 cells; assay type: cell-based, human; conditions: SB202190 2.5 μM
Method: (§1) 2×10^5 cells were grown and treated as described in FIG. 1. After the indicated times, equal amounts of cell lysates were blotted with anti-phospho-p42/44^MAPK antibody, phosphorylation-independent p42/44^MAPK antibody, anti-phospho p46/54^JNK antibody, anti-phospho-MEK-1/2, or phosphorylation-independent MKP-1.
HepG2 cells were cultured in the absence or presence of 1 μM staurosporine or 5 μM PD98059 for 30 min. SB202190 (2.5 μM) was then added to the cells for 4 h, cell lysate was subjected to immunoblotting to measure the phosphorylation levels of p42/44^MAPK and MEK-1/2.
Human hepatoma cell line HepG2 and its derivative HepG2-ΔRaf-1:ER cell line that stably expresses the ΔRaf-1:ER chimera were maintained as monolayer cultures in a humidified 5% CO2 atmosphere at 37° C. in Eagle's minimum essential medium (EMEM) (Bio Whittaker, Md.) supplemented with 10% fetal bovine serum (FBS) (Life Technologies Inc.), 2 mM L-glutamine, 20 units/ml penicillin and 20 μg/ml streptomycin sulphate.
(§2) Proteins were fractionated by SDS-PAGE with an 10% acrylamide separation gel, and the separated proteins were transferred to nitrocellulose, and processed as described previously (43, 44). Briefly, membranes were incubated in 20 mM Tris-HCl, pH 7.6, 137 mM NaCl, 0.2% v/v Tween-20 (Tris/NaCl/Tween-20) with 5% w/v non-fat dried milk for 1 h, washed in Tris/NaCl/Tween-20 (3×5 min), and incubated for 1 h with primary antibody in Tris/NaCl/Tween-20 containing 1% milk at room temperature for non phospho-specific antibodies and overnight at 4° C. for phospho-specific antibodies. The following dilutions were used for individual antibodies against different proteins: p42/44^MAPK (1:1600); phosphop-42/44^MAPK (1:1000); phosphop-46/54^JNK (1:1000); phospho-p38^MAPK (1:1600); phospho-MEK-1/2 (1:1000); MKP-1 (1:1500). After further washing in Tris/NaCl/Tween-20, membranes were incubated for 1 h with horseradish peroxidase-linked anti-IgG secondary antibody (Bio-Rad, diluted 1:5000), and immunoreactive proteins were detected by ECL as described by the supplier. Quantitative analyses of protein levels were performed by densitometric scanning of the autoradiograms, and are representative of 3 or more independent experiments.
(§3) HepG2 cells were incubated with SB202190, and the activity of p42/44^MAPK and p46/54^JNK was determined by immunoblot analysis with antibodies that recognized the activated phosphorylated forms of these kinases in cell extracts obtained at different times.

p46/54^JNK [2] = conditions: even at higher concentrations (100 μM); cited from earlier work
p42/44^MAPK [3] = experiment: Western blotting of phospho-p42/44MAPK in HeLa cells; assay type: cell-based; conditions: SB202190 (2.5 μg/ml) in 0.5% FBS
Method: as §2

MEK-1/2 = experiment: Immunoblot of phospho-MEK-1/2 in HepG2 cells; assay type: cell-based, human; conditions: SB202190 2.5 μM
Method: as §1
HepG2 cells were cultured in the absence or presence of 1 μM staurosporine or 5 μM PD98059 for 30 min. SB202190 (2.5 μM) was then added to the cells for 4 h, cell lysate was subjected to immunoblotting to measure the phosphorylation levels of p42/44^MAPK and MEK-1/2. […]
(§4) Proteins were fractionated by SDS-PAGE with an 10% acrylamide separation gel, and the separated proteins were transferred to nitrocellulose, and processed as described previously (43, 44). […] After further washing in Tris/NaCl/Tween-20, membranes were incubated for 1 h with horseradish peroxidase-linked anti-IgG secondary antibody (Bio-Rad, diluted 1:5000), and immunoreactive proteins were detected by ECL as described by the supplier. Quantitative analyses of protein levels were performed by densitometric scanning of the autoradiograms, and are representative of 3 or more independent experiments.

squalene synthase (SS) = experiment: Northern blotting of squalene synthase (SS) mRNA in HepG2 cells; assay type: cell-based, human; conditions: SB202190 2.5 μM
Method: 5×10^5 cells were plated on day 0. On day 2, cells were refed with fresh medium. On day. 4, cells were either left untreated (0) or treated for the indicated times with SB202190 (2.5 μM) in medium containing 0.5% FBS. Total RNA was isolated and subjected to Northern blotting to determine amounts of LDL receptor, squalene synthase (SS) genes, and actin mRNAs. Autoradiographs were quantitated densitometrically. LDL receptor mRNA levels were normalized to actin mRNA levels. In the bottom panel, results are expressed as the fold induction by SB 202190 as compared with uninduced cells (set at 1). Values obtained are the averages of three separate experiments, with the standard deviations shown. […]
Total RNA was isolated using TRIzol, and Northern blotting was done essentially as described earlier (43, 44). […] The relative intensities of specific bands were determined densitometrically within the linear range of the film on a model 300A laser densitometer (Molecular Dyanamics, Calif.) with Image Quant software. […]

p46/54^JNK [4] = experiment: Immunoblot of phospho-p46/54JNK in HepG2 cells; assay type: cell-based, human; conditions: SB202190 2.5 μM
Method: 2×10^5 cells were grown and treated as described in FIG. 1. After the indicated times, equal amounts of cell lysates were blotted with anti-phospho-p42/44^MAPK antibody, phosphorylation-independent p42/44^MAPK antibody, anti-phospho p46/54^JNK antibody, anti-phospho-MEK-1/2, or phosphorylation-independent MKP-1. […]
as §4, §3

For `Oc1ccc(-c2nc(-c3ccc(F)cc3)c(-c3ccncc3)[nH]2)cc1` [SB202190, 4-(4-Fluorophenyl)-2-(4-hydroxyphenyl)-5-(4-pyridyl) 1H-imidazole], the “activation of p42/44MAPK (phosphorylation)” value (p42/44^MAPK [1]) was “delayed and prolonged activation”, the “effect on p42/44MAPK protein levels” value (p42/44^MAPK [1]) was “no effect on p42/44^MAPK protein levels” and the “time of maximal p42/44MAPK activation after stimulation” value (p42/44^MAPK [1]) was 4 to 8 h. For the same compound, the “time of weak p42/44MAPK activation after treatment” value (p42/44^MAPK [1]) was 1 h, the “time until which activated p42/44MAPK remained elevated” value (p42/44^MAPK [1]; 24 hours was maximum time point measured) was no less than 24 h and the “effect on p46/54JNK” value (p46/54^JNK [2]) was “without effect”. The “p42/44MAPK activity in HeLa cells” value (p42/44^MAPK [3]) was “induced p42/44^MAPK activity”, the “kinetics of MEK-1/2 phosphorylation” value (MEK-1/2) was “paralleled the appearance of p42/44^MAPK” and the “effect on expression of actin gene or sterol-sensitive gene SS” value (squalene synthase (SS)) was “without significantly affecting expression”. For the same compound, the “effect on activity or levels of p46/54JNK” value (p46/54^JNK [4]) was “little or no effect”.
